Measured values as given in patent US20230227466A1, “SUBSTITUTED THIENOPYRIMIDINES THAT INTERACT WITH THE RAS SUPERFAMILY FOR THE TREATMENT OF CANCERS, INFLAMMATORY DISEASES, RASOPATHIES, AND FIBROTIC DISEASE” (SHY Therapeutics, LLC, priority 2020, published 2023).
Where two headings read alike, the source gives them in different places.

Columns and labels:
[1] = target: T1, KRas G12C mutant (Homo sapiens, UniProt P01116, G12C); experiment: Ras GTP binding domain inhibition assay (labeled-GTP competition, cell-free)
T1 construct: made in house
How it was run: (§1)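 Labeled-GTP competition read out as bound Cy3/Cy5-GTP fluorescence after washes, with 100 nM tracer for 45 min at RT. Before tracer, compounds at 20 μM, or a dilution series for IC50, sat 3 h at RT on the Ni-immobilized His-tagged GTPase. Sos GEF (10-30 μg/mL) was optionally present for the last hour.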

[2] = target: T2, KRas G12D mutant (Homo sapiens, UniProt P01116, G12D); experiment: as above
T2 construct: made in house
How it was run: as §1

[3] = target: T3, KRas Q61H mutant (Homo sapiens, UniProt P01116, Q61H); experiment: as above; settings: at 20 μM
T3 construct: made in house
How it was run: as §1

[4] = tested on: MIA-PaCa-2 pancreatic cancer cell line (KRAS G12C); experiment: Cell proliferation assay (CellTiter 96 Aqueous One); type: cell-based; settings: Homo sapiens; for IC50: MIA PaCa-2, MIA PaCa-2; for inhibition at 10 µM: MIA PaCa-2, read-out: % inh cell proliferation (10 μM) in MIA PaCa-2
How it was run: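 After overnight attachment, compounds are added (10 μM final or serial dilutions) and left 2–4 days, with viability then measured by MTS.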

[5] = target: KRas wild type (Homo sapiens, UniProt P01116); experiment: Ras GTP binding domain inhibition assay (labeled-GTP competition, cell-free); set-up: made in house
How it was run: as §1

[6] = target: Rac-1 (Homo sapiens, UniProt P63000); experiment: as above; set-up: made in house
How it was run: as §1

[7] = target: Rho-A (Homo sapiens, UniProt P61586); experiment: as above; set-up: made in house
How it was run: as §1

[8] = with SOS, read-out: KRas G12C mutant + SOS: % inh.
[9] = without SOS, read-out: KRas G12C mutant: % inh.
[10] = with SOS, read-out: KRas G12D mutant + SOS: % inh.
[11] = without SOS, read-out: KRas G12D mutant: % inh.
[12] = with SOS, read-out: KRas Q61H mutant + SOS: % inh.
[13] = without SOS, read-out: KRas Q61H mutant: % inh.
[14] = with SOS, read-out: KRas wild type + SOS: % inh.
[15] = without SOS, read-out: KRas wild type: % inh.
[16] = with SOS, read-out: Rac-1 + SOS: % inh.
[17] = without SOS, read-out: Rac-1: % inh.
[18] = with SOS, read-out: Rho-A + SOS: % inh.
[19] = without SOS, read-out: Rho-A: % inh.

| inhibition at 20 µM [1, 8] | inhibition at 20 µM [1, 9] | inhibition at 20 µM [2, 10] | inhibition at 20 µM [2, 11] | inhibition at 20 µM [3, 12] | inhibition at 20 µM [3, 13] | IC50 [4] | inhibition at 20 µM [5, 14] | inhibition at 20 µM [5, 15] | inhibition at 20 µM [6, 16] | inhibition at 20 µM [6, 17] | inhibition at 20 µM [7, 18] | inhibition at 20 µM [7, 19] | SMILES | inhibition at 10 µM [4] |
| --- | --- | --- | --- | --- | --- | --- | --- | --- | --- | --- | --- | --- | --- | --- |
| 51 to 75% | 51 to 75% | 76 to 100% | 51 to 75% | 76 to 100% | 51 to 75% | 5 to 10 µM | 51 to 75% | 76 to 100% | 51 to 75% | 51 to 75% | 76 to 100% | 76 to 100% | CO[C@H]1CN(c2nc(-c3nccn3C)nc3sc(-c4ccn(C(C)C)n4)c(C)c23)C[C@H]1OC [Compound 39, rac-4-((3S,4R)-3,4-Dimethoxypyrrolidin-1-yl)-6-(1-isopropyl-1H-pyrazol-3-yl)-5-methyl-2-(1-methyl-1H-imidazol-2-yl)thieno[2,3-d]pyrimidine] | 76 to 100% |
| 76 to 100% | 76 to 100% | 51 to 75% | 76 to 100% | 76 to 100% | 76 to 100% | 5 to 10 µM | 76 to 100% | 51 to 75% | 51 to 75% | 51 to 75% | 76 to 100% | 51 to 75% | CO[C@H]1C[C@@H](Nc2nc(-c3nccn3C)nc3sc(-c4ccn(C(C)C)n4)c(C)c23)C[C@H]1OC [Compound 42, N-((1r,3R,4S)-3,4-Dimethoxycyclopentyl)-6-(1-isopropyl-1H-pyrazol-3-yl)-5-methyl-2-(1-methyl-1H-imidazol-2-yl)thieno[2,3-d]pyrimidin-4-amine] | 51 to 75% |
| 76 to 100% | 1 to 25% | 76 to 100% | 76 to 100% | 76 to 100% | 1 to 25% | 5 to 10 µM | 76 to 100% | 26 to 50% | 51 to 75% | 26 to 50% | 76 to 100% | 76 to 100% | CO[C@H]1C[C@H](Nc2nc(-c3nccn3C)nc3sc(-c4ccn(C(C)C)n4)c(C)c23)C[C@H]1OC [Compound 43, N-((1s,3R,4S)-3,4-Dimethoxycyclopentyl)-6-(1-isopropyl-1H-pyrazol-3-yl)-5-methyl-2-(1-methyl-1H-imidazol-2-yl)thieno[2,3-d]pyrimidin-4-amine] | 51 to 75% |
| 51 to 75% | 51 to 75% | 76 to 100% | 26 to 50% | 76 to 100% | 76 to 100% | > 10 µM | 51 to 75% | 76 to 100% | 76 to 100% | 76 to 100% | 76 to 100% | 76 to 100% | Cc1c(-c2ccn(C(C)C)n2)sc2nc(-c3nccn3C)nc(NCCc3nnn[nH]3)c12 [Compound 46, N-(2-(1H-Tetrazol-5-yl)ethyl)-6-(1-isopropyl-1H-pyrazol-3-yl)-5-methyl-2-(1-methyl-1H-imidazol-2-yl)thieno[2,3-d]pyrimidin-4-amine] | 1 to 25% |
| 76 to 100% | 51 to 75% | 51 to 75% | 51 to 75% | 76 to 100% | 51 to 75% | < 1 µM | 76 to 100% | 76 to 100% | 51 to 75% | 51 to 75% | 76 to 100% | 76 to 100% | CO[C@H]1C[C@@H](CNc2nc(-c3nccn3C)nc3sc(-c4ccn(C(C)C)n4)c(C)c23)C1 [Compound 47, 6-(1-Isopropyl-1H-pyrazol-3-yl)-N-(((1s,3s)-3-methoxycyclobutyl)methyl)-5-methyl-2-(1-methyl-1H-imidazol-2-yl)thieno[2,3-d]pyrimidin-4-amine] | 76 to 100% |
